Literature values, collected in patent US9044417B2, “Mineral, nutritional, cosmetic, pharmaceutical, and agricultural compositions and methods for producing the same” (Core Intellectual Properties Holdings, LLC, priority 2003, dated 2015).

Conditions: aqueous solutions of glycolic acid, pH=3.0; general statement for comparison

sting or burning when applied to freshly shaven skin: will sting or burn
Structure (SMILES): O=C(O)CO [glycolic acid]
